Reference: US11866394B2, “Prodrugs of hydroxamate-based GCPII inhibitors” (The Johns Hopkins University, priority 2016, dated 2024)
Entries after “also recorded” stand apart in the source; their conditions may differ. Like-named read-outs stand apart in the source and are kept apart here.

Columns and labels:
[1] = In vitro plasma metabolite identification studies; assay type: in vitro ADME; conditions: 10 μM, 37° C., 60 min incubation
Method: Plasma stability studies were conducted in mouse plasma as previously described. (Majer, et al., 2016) Compound 1 and prodrugs (12, 23 and 30) (10 μM) were spiked in plasma and incubated in an orbital shaker at 37° C. At zero and 60 min post incubation, 100 μL aliquots of the mixture in triplicate were removed and the reaction quenched by addition of two times the volume of ice cold acetonitrile spiked with the internal standard (losartan 5 μM). The samples were vortexed for 30 s and centrifuged at 12000 g for 10 min. Supernatant (50 μL) was diluted with 50 μL water and transferred to a 250 μL polypropylene vial sealed with a Teflon cap. Prodrug disappearance and metabolite identification were analyzed over time using an Agilent 1260 HPLC coupled to a ESITOF Agilent 6530 with Agilent Jet Stream Technology (Agilent Technologies, Santa Clara, CA). Samples were separated on a Waters 1.7 μm, C18, 100×2.1 column at a flow rate 0.3 mL/min. […] The mass spectrometry instrument was operated in a negative or positive (for JV-2946) ion mode with a voltage of +3.00 kV applied to the capillary. The temperature, the flow rate of the nitrogen drying gas, the pressure of the nitrogen nebulizing gas, the temperature, and the flow rate of the sheath gas were set at 325° C., 10 L/min, 40 psi, 390° C., and 11/min, respectively.

[2] = system: rat chronic constriction injury (CCI) model of neuropathic pain; conditions: cited from earlier work
[3] = cited from earlier work; for oral bioavailability: background statement
rhGCPII = rhGCPII (Homo sapiens, UniProt Q04609); assay: GCPII inhibition, radioenzymatic assay with 3H-NAAG; assay type: biochemical; conditions: for IC50: rhGCPII, 3H-NAAG, pH 8.0, read-out: IC50, inhibition potency against GCPII
Method: Inhibition constants of prodrugs were determined using the radioenzymatic assay with 3HNAAG (radiolabeled at the terminal glutamate) as has been previously described (Novakova, et al., J. Med. Chem, 2016). Briefly, rhGCPII (30 ng/mL) was preincubated in the presence of inhibitors at varying concentrations, in 20 mM Tris, 150 mM NaCl, pH 8.0, for 15 min at 37° C. in the total volume of 80 μL. The reaction was initiated by the addition of 40 μL of the mixture of 0.31 μM NAAG (Sigma) and 15 nM 3H-NAAG (50 Ci/mmol in Tris buffer, PerkinElmer) to the total reaction volume of 120 μL. Following 20 min incubation, the reaction was terminated by addition of 120 μL of potassium phosphate (200 Mm), EDTA (50 Mm) and β-mercaptoethanol (2Mm), pH 7.4. The released glutamate was separated by ion-exchange chromatography and quantified by liquid scintillation counting. GraphPad Prism software (GraphPad Software, San Diego, CA, USA), was used for data fitting and IC50 values were calculated from the inhibition curves where applicable.

[4] = Stability testing under GCPII enzyme assay conditions; assay type: physicochemical; conditions: 30 m in aqueous buffer; pH 8.0
Method: Compound 1 and its six prodrugs 7, 12, 17, 23, 25, and 30 were tested for their inhibition potency against GCPII. […] Considering structural data on the compound 1/GCPII complex reported previously (Novakova, et al., J. Med. Chem, 2016) the lack of inhibitory potency of the prodrugs is likely due to the inability of the modified hydroxamate function to chelate active-site zinc ions.

[5] = Subcutaneous plasma and sciatic nerve pharmacokinetic studies in mice; assay type: in vivo; conditions: 10 mg/kg equivalent s.q., 10-120 min post dose
Method: Bioanalysis of parent and intact prodrug in plasma and tissues: Prior to extraction, frozen samples were thawed on ice. For plasma, 50 μL of the sample was transferred into siliconized microcentrifuge tubes. For sciatic nerves, the samples were weighed in a 1.7 mL tubes and homogenized in 5× the volume of methanol. The calibration curves were prepared using naïve plasma and sciatic nerves in a concentration range of 50-10000 pmol/g or pmol/mL. Sample preparation involved a single liquid extraction by addition of 300 μL of methanol with internal standard (losartan 200 nM in methanol), followed by vortexing for 30 s and then centrifugation at 10,000×g for 10 min. Supernatant (about 250 μL) was transferred and evaporated to dryness at 40° C. under a gentle stream of nitrogen. The residue was reconstituted with 50 μL of 30% acetonitrile and analysed by LC/MS/MS.
Chromatographic analysis was performed using an Accela™ ultra high-performance system consisting of an analytical pump, and an autosampler coupled with TSQ Vantage mass spectrometer (Thermo Fisher Scientific Inc., Waltham, MA). […] The mobile phase used was composed of 0.1% formic acid in acetonitrile and 0.1% formic acid in H2O with gradient elution, starting with 10% (organic) linearly increasing to 99% up to 2.5 min, maintaining at 99% (2.5-3.5 min) and reequlibrating to 10% by 4.5 min. The total run time for each analyte was 4.5 min. The mass transitions (M−H)− used for Compound 50 were 280.077>175.168, 203.156; and for losartan were 420.895>127.040, 179.108.

[6] = system: rat chronic constriction injury (CCI) model of neuropathic pain; assay: Chronic constrictive injury (CCI) model of neuropathic pain, thermal hyperalgesia; assay type: in vivo
Description: All experimental protocols were approved by the Institutional Animal Care and Use Committee at Johns Hopkins University (Baltimore, MD) and adhered to all of the applicable institutional and governmental guidelines for the humane treatment of laboratory animals. Male Sprague-Dawley rats (200-250 g; n=10-15 per group) were subjected to peripheral neuropathy injury by constriction of the sciatic nerve performed according to methods described previously. (Novakova, et al., 2016; Bennett, et al., 1988; Attal, et al., 1990) In brief, the common sciatic nerve was exposed and 4 ligatures (4.0 chromic gut) tied loosely around it with 1 mm spacing. Wound clips were used to close wounds and animals were returned to home cages for recovery. Hyperalgesia testing was initiated 10 days post-surgery. Pain sensitivity was assessed by determining withdrawal latencies in response to a constant thermal stimulus directed to the plantar surface of the hind paw using a Basile Plantar apparatus (Ugo Basile, Vaarese, Italy) according to the method described by Hargreaves et al. (Hargreaves, et al., 1988) Apparatus was calibrated so that normal rats respond to the stimulus within 15 sec of application. Withdrawal latency (i.e., the time taken for the rat to withdraw its paw from the heat source) was measured to the nearest 0.1 sec. The “difference in score” was calculated by subtracting the average latency of the paw on the non-ligated versus ligated side. Each animal was tested during two experimental sessions per week, with three days allowed to elapse between test sessions. Test agents, prodrug 12 (3 mg/kg equivalent of 1), or gabapentin (50 mg/kg and 100 mg/kg po) as a positive control were dosed daily throughout the study via oral gavage and one hour before testing on experimental days. Statistical analysis with students t-test was used to determine differences between control and treatment group.

[7] = In vitro metabolic stability in human plasma; assay type: in vitro ADME; conditions: 37° C.
Method: (§1) For metabolic stability, plasma (mouse, and human) and liver microsomes (mouse and human) were used. For stability, prodrugs (10 μM) were spiked in each matrix and incubated in an orbital shaker at 37° C. At predetermined times (0, 30 and 60 min), 100 μL aliquots of the mixture in triplicate were removed and the reaction quenched by addition of three times the volume of ice cold acetonitrile spiked with the internal standard (losartan 5 μM). The samples were vortexed for 30 s and centrifuged 12000 g for 10 min. 50 μL supernatant diluted with 50 μL water was transferred to a 250 μL polypropylene vial sealed with a Teflon cap. Prodrug disappearance was monitored over time using a liquid chromatography and tandem mass spectrometry (LC/MS/MS) method as described below.
(§2) For LC/MS/MS, prodrugs were separated with Thermo Scientific Accela UPLC system coupled to Accela open autosampler on an Agilent C18 (100×2.1 mm id) UPLC column. The autosampler was temperature controlled and operating at 10° C. […] The column effluent was monitored using TSQ Vantage triple-quadrupole mass spectrometric detector, equipped with an electrospray probe set in the positive ionization mode. […]
(§3) For quantification of compound remaining, disappearance of prodrugs was measured from ratio of peak areas of analyte to IS. Percentage remaining was calculated in the following manner: […]

[8] = In vitro metabolic stability in mouse plasma; assay type: in vitro ADME; conditions: 37° C.
Method: as §1, §2, §3

rhGCPII, sequence (Q04609 whole entry): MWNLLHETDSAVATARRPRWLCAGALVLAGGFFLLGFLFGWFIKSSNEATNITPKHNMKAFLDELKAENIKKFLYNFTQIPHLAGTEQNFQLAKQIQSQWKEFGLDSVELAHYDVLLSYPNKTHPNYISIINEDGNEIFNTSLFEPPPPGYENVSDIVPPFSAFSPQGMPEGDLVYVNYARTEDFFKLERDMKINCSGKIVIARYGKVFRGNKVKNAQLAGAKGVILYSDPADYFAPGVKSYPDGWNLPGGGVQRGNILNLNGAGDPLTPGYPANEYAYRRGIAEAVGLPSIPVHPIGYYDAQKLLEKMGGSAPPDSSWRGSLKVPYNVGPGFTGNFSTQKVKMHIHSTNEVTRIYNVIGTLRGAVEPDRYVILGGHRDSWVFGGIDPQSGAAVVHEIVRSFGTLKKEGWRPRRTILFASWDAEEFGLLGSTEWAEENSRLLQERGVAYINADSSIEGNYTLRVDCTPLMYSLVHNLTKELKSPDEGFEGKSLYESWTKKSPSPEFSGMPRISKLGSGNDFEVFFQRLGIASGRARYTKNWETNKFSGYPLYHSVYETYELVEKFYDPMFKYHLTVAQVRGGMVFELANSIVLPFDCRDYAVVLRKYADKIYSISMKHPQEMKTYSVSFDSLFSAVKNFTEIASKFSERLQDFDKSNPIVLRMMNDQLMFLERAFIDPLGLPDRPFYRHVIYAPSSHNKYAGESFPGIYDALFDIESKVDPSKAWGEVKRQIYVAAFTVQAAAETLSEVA

For `O=C(CCC(Cc1ccc(C(=O)O)cc1)C(=O)O)NO` (stereo not drawn) [Compound 1, 4-Carboxy-α-[3-(hydroxyamino)-3-oxopropyl]-benzenepropanoic acid], the “stability / prodrug disappearance in mouse plasma” value (“stability / prodrug disappearance” below) [1] is given as “completely stable”, the “analgesic effects in the CCI model” value ([2]; 10 mg/kg/day oral dosing, previously shown) is given as “analgesic effects” and the “first day with significantly reduced thermal hyperalgesia” value ([2]; oral 10 mg/kg/day (Novakova, et al., 2016)) is given as 8 days. For the same compound, the “distribution to sciatic nerves” value ([3]; Novakova, et al., 2016) was “good distribution to sciatic nerves”, the oral bioavailability [3] was “poor oral bioavailability” and the IC50 (rhGCPII) was 44 nM.
In the case of `Cc1oc(=O)oc1CONC(=O)CCC(Cc1ccc(C(=O)O)cc1)C(=O)O` (stereo not drawn) [Compound 17, 4-(2-Carboxy-5-(((5-methyl-2-oxo-1,3-dioxol-4-yl)methoxy)amino)-5-oxopentyl)benzoic acid], the “stability under GCPII enzyme assay conditions” value [4] is reported as “partial hydrolysis to 1”, the “fold less potent versus 1 in inhibiting GCPII activity” value (rhGCPII; compared to compound 1) is reported as 12 fold and the IC50 (rhGCPII) is reported as 540 nM.
For `CC(=O)Oc1ccc(CONC(=O)CCC(Cc2ccc(C(=O)O)cc2)C(=O)O)cc1` (stereo not drawn) [Compound 12, 4-(5-(((4-Acetoxybenzyl)oxy)amino)-2-carboxy-5-oxopentyl)benzoic acid], the “plasma (systemic) levels of active compound 50 after subcutaneous dosing” value [5] was “high systemic levels”, the “sciatic nerve exposure of active compound 50 after subcutaneous dosing” value [5] was “excellent nerve exposure” and the “response latency to thermal stimulus, sham-operated side” value ([6]; oral 4.6 mg/kg/day (equivalent of 3 mg/kg/day of 1)) was “no significant effect on absolute latency; also recorded: did not affect the response latency”. The “antinociceptive effect on thermal hyperalgesia, ligated side” value (“antinociceptive effect” below) ([6]; oral daily, 3 mg/kg dose equivalent of 1 (50), 4.6 mg/kg/day for 12) was “analgesic efficacy comparable to dose of 10 mg/kg of 1; also recorded: significantly reduced thermal hyperalgesia; also recorded: analgesic efficacy superior to that of oral daily doses of 10 mg/kg of 1; also recorded: efficacious; also recorded: significantly attenuated CCI-induced hyperalgesic state”, the “first day with significantly reduced thermal hyperalgesia” value ([6]; oral, 3 mg/kg/day equivalent of 1) was 4 days and the “stability / prodrug disappearance” value [1] was “lost the peak corresponding to 12”. The “metabolic stability in human plasma” value [7] was “rapidly metabolized” and the “metabolic stability in mouse plasma” value [8] was “rapidly metabolized”.
With `CCOC(=O)c1ccc(CC(CCC(=O)NOCc2ccc(OC(C)=O)cc2)C(=O)O)cc1` (stereo not drawn) [Compound 23, 5-(((4-Acetoxybenzyl)oxy)amino)-2-(4-(ethoxycarbonyl)benzyl)-5-oxopentanoic acid] the “stability / prodrug disappearance” value [1] was “complete loss of 23”.
For `O=C(O)CCC(CP(=O)(O)O)C(=O)O` (stereo not drawn) [Compound 2-PMPA, 2-phosphonomethyl pentanedioic acid], the oral bioavailability [3] is given as “negligible oral availability”.
With `CC(=O)Oc1ccc(CONC(=O)CCC(Cc2ccc(C(=O)OCOC(=O)OC(C)C)cc2)C(=O)O)cc1` (stereo not drawn) [Compound 30, 5-(((4-Acetoxybenzyl)oxy)amino)-2-(4-((((isopropoxycarbonyl)oxy)methoxy)carbonyl)benzyl)-5-oxopentanoic acid] the “plasma (systemic) levels of active compound 50 after subcutaneous dosing” value [5] was “high systemic levels”, the “sciatic nerve exposure of active compound 50 after subcutaneous dosing” value [5] was “excellent nerve exposure” and the “stability / prodrug disappearance” value [1] was “completely hydrolyzed”.
For `NCC1(CC(=O)O)CCCCC1` [gabapentin, reference compound], the “antinociceptive effect” value ([6]; oral 50 mg/kg/day) was “did not significantly attenuate the hyperalgesic state” and the “antinociceptive effect” value ([6]; oral 100 mg/kg/day, 100 mg/kg/day) was “significantly reversed allodynia; also recorded: significantly attenuated CCI-induced hyperalgesic state”.
